Bounds are passed on as bounds.

This assay deals with LSD-1 enzyme (Homo sapiens (Human), UniProt O60341). As to the kind of experiment: LANCE LSD1/KDM1A demethylase assay (LSD1 histone demethylase biochemical assay). The following applies: 1 nM LSD-1 enzyme, 1 hour preincubation at 25° C., 0.4 μM Biotin-labeled Histone H3 peptide substrate. The protocol: LSD1 Histone Demethylase Biochemical Assay
LANCE LSD1/KDM1A demethylase assay-10 μL of 1 nM LSD-1 enzyme (ENZO BML-SE544-0050) in the assay buffer (50 mM Tris, pH 7.5, 0.01% Tween-20, 25 mM NaCl, 5 mM DTT) were preincubated for 1 hour at 25° C. with 0.8 μL compound/DMSO dotted in black 384 well polystyrene plates. […] Reactions were stopped by addition of 10 μL 1× LANCE Detection Buffer (PerkinElmer CR97-100) supplemented with 1.5 nM Eu-anti-unmodified H3K4 Antibody (PerkinElmer TRF0404), and 225 nM LANCE Ultra Streptavidin (PerkinElmer TRF102) along with 0.9 mM Tranylcypromine-HCl (Millipore 616431). After stopping the reactions plates were incubated for 30 minutes and read on a PHERAstar FS plate reader (BMG Labtech).
On to `CN(C)C1CCN(c2nc(-c3ccc(C#N)cc3)c(-c3ccc4c(c3)CC(O)C4)n3ccnc23)CC1` (racemic) [Example 93, 4-[8-[4-(dimethylamino)piperidin-1-yl]-5-(2-hydroxy-2,3-dihydro-1H-inden-5-yl)imidazo[1,2-a]pyrazin-6-yl]benzonitrile], for which the IC50 is ≤ 50 nM.

`CN(C)C1CCN(c2nc(-c3ccc(C#N)cc3)c(-c3ccc4c(c3)C(O)CC4)n3ccnc23)CC1` (racemic) [Example 95, 4-[8-[4-(dimethylamino)piperidin-1-yl]-5-(3-hydroxy-2,3-dihydro-1H-inden-5-yl)imidazo[1,2-a]pyrazin-6-yl]benzonitrile]: the IC50 is ≤ 50 nM.

In the case of `Cc1ccc(-c2c(-c3ccc(C#N)cc3)nc(OC[C@@H]3CCNC3)c3nccn23)cc1` [Example 1, 4-{5-(4-methylphenyl)-8-[(3R)-pyrrolidin-3-ylmethoxy]imidazo[1,2-a]pyrazin-6-yl}benzonitrile], the IC50 is ≤ 50 nM.

As for `Cc1ccc(-c2c(-c3ccc(C#N)cc3)nc(CCC3CCNC3)c3nccn23)cc1` (stereo not drawn) [Example 2, 4-[5-(4-methylphenyl)-8-(2-pyrrolidin-3-ylethyl)imidazo[1,2-a]pyrazin-6-yl]benzonitrile], the IC50 was ≤ 50 nM.

Turning to `Cc1ccc(-c2c(-c3ccc(C#N)cc3)nc(CN3CC[C@H](N(C)C)C3)c3nccn23)cc1` [Example 4, 4-[8-{[(3S)-3-(dimethylamino)pyrrolidin-1-yl]methyl}-5-(4-methylphenyl)imidazo[1,2-a]pyrazin-6-yl]benzonitrile], the IC50 is ≤ 50 nM.

In the case of `Cc1ccc(-c2c(-c3ccc(C#N)cc3)nc(CN3CC[C@@H](N(C)C)C3)c3nccn23)cc1` [Example 5, 4-[8-{[(3R)-3-(dimethylamino)pyrrolidin-1-yl]methyl}-5-(4-methylphenyl)imidazo[1,2-a]pyrazin-6-yl]benzonitrile], the IC50 was ≤ 50 nM.

`Cc1ccc(-c2c(-c3ccc(C#N)cc3)nc(OC3CCN(C)C3)c3nccn23)cc1` (stereo not drawn) [Example 7, 4-{5-(4-methylphenyl)-8-[(1-methylpyrrolidin-3-yl)oxy]imidazo[1,2-a]pyrazin-6-yl}benzonitrile]: the IC50 was ≤ 50 nM.

For `Cc1ccc(-c2c(-c3ccc(C#N)cc3)nc(OC[C@@H]3CCCNC3)c3nccn23)cc1` [Example 9, 4-{5-(4-methylphenyl)-8-[(3R)-piperidin-3-ylmethoxy]imidazo[1,2-a]pyrazin-6-yl}benzonitrile], the IC50 was ≤ 50 nM.

Consider `Cc1ccc(-c2c(-c3ccc(C#N)cc3)nc(OC[C@H]3CCCNC3)c3nccn23)cc1` [Example 10, 4-{5-(4-methylphenyl)-8-[(3S)-piperidin-3-ylmethoxy]imidazol[1,2-a]pyrazin-6-yl}benzonitrile], for which the IC50 is ≤ 50 nM.

Take `Cc1ccc(-c2c(-c3ccc(C#N)cc3)nc(OC[C@@H]3CCN(C)C3)c3nccn23)cc1` [Example 11, 4-(5-(4-methylphenyl)-8-{[(3R)-1-methylpyrrolidin-3-yl]methoxy}imidazo[1,2-a]pyrazin-6-yl)benzonitrile]: the IC50 is ≤ 50 nM.

On to `Cc1ccc(-c2c(-c3ccc(C#N)cc3)nc(OC[C@@H]3CCCN(C)C3)c3nccn23)cc1` [Example 12, 4-(5-(4-methylphenyl)-8-{[(3R)-1-methylpiperidin-3-yl]methoxy}imidazo[1,2-a]pyrazin-6-yl)benzonitrile], for which the IC50 is ≤ 50 nM.

On to `Cc1ccc(-c2c(-c3ccc(C#N)cc3)nc(SC[C@@H]3CCNC3)c3nccn23)cc1` [Example 13, 4-(5-(4-methylphenyl)-8-{[(3R)-pyrrolidin-3-ylmethyl]thio}imidazo[1,2-a]pyrazin-6-yl)benzonitrile], for which the IC50 was ≤ 50 nM.

Consider `Cc1ccc(-c2c(-c3ccc(C#N)cc3)nc(N3CCC(N(C)C)CC3)c3nccn23)cc1` [Example 14, 4-[8-[4-(dimethylamino)piperidin-1-yl]-5-(4-methylphenyl)imidazo[1,2-a]pyrazin-6-yl]benzonitrile], for which the IC50 is ≤ 50 nM.

For the compound `Cc1ccc(-c2c(-c3ccc(C#N)cc3)nc(N3CCCN(C)CC3)c3nccn23)cc1` [Example 18, 4-[8-(4-methyl-1,4-diazepan-1-yl)-5-(4-methylphenyl)imidazo[1,2-a]pyrazin-6-yl]benzonitrile], the IC50 was ≤ 50 nM.

As for `Cc1ccc(-c2c(-c3ccc(C#N)cc3)nc(N3CCC4(CCNC4)C3)c3nccn23)cc1` (stereo not drawn) [Example 19, 4-[8-(2,7-diazaspiro[4.4]non-2-yl)-5-(4-methylphenyl)imidazo[1,2-a]pyrazin-6-yl]benzonitrile], the IC50 is ≤ 50 nM.

With `Cc1ccc(-c2c(-c3ccc(C#N)cc3)nc(N3CCC4(CC3)CNC4)c3nccn23)cc1` [Example 20, 4-[8-(2,7-diazaspiro[3.5]non-7-yl)-5-(4-methylphenyl)imidazo[1,2-a]pyrazin-6-yl]benzonitrile], the IC50 is ≤ 50 nM.

As for `N#Cc1ccc(-c2nc(OC[C@@H]3CCNC3)c3nccn3c2-c2ccc(N3CCCCC3)cc2)cc1` [Example 29, 4-{5-(4-piperidin-1-ylphenyl)-8-[(3R)-pyrrolidin-3-ylmethoxy]imidazo[1,2-a]pyrazin-6-yl}benzonitrile], the IC50 was ≤ 50 nM.

As to `COc1ccc(-c2c(-c3ccc(C#N)cc3)nc(OC[C@@H]3CCNC3)c3nccn23)cc1` [Example 30, 4-{5-(4-methoxyphenyl)-8-[(3R)-pyrrolidin-3-ylmethoxy]imidazol[1,2-a]pyrazin-6-yl}benzonitrile], the IC50 is ≤ 50 nM.

For the compound `Cc1ccc(-c2c(-c3ccc(C#N)cc3)nc(OC[C@@H]3CCNC3)c3nc(C)cn23)cc1` [Example 33, 4-{2-methyl-5-(4-methylphenyl)-8-[(3R)-pyrrolidin-3-ylmethoxy]imidazo[1,2-a]pyrazin-6-yl}benzonitrile], the IC50 was ≤ 50 nM.

Take `Cc1ccc(-c2c(-c3ccc(C#N)cc3)nc(OC[C@@H]3CCNC3)c3nc(CC#N)cn23)cc1` [Example 36, 4-{2-(cyanomethyl)-5-(4-methylphenyl)-8-[(3R)-pyrrolidin-3-ylmethoxy]imidazol[1,2-a]pyrazin-6-yl}benzonitrile]: the IC50 is ≤ 50 nM.

For the compound `CNC(=O)c1cn2c(-c3ccc(C)cc3)c(-c3ccc(C#N)cc3)nc(OC[C@@H]3CCNC3)c2n1` [Example 37, 6-(4-cyanophenyl)-N-methyl-5-(4-methylphenyl)-8-[(3R)-pyrrolidin-3-ylmethoxy]imidazol-[1,2-a]pyrazine-2-carboxamide], the IC50 is ≤ 50 nM.

On to `Cc1ccc(-c2c(-c3ccc(C#N)cc3)nc(OC[C@@H]3CCNC3)c3nc(C(=O)N(C)C)cn23)cc1` [Example 38, 6-(4-cyanophenyl)-N,N-dimethyl-5-(4-methylphenyl)-8-[(3R)-pyrrolidin-3-ylmethoxy]imidazo[1,2-a]pyrazine-2-carboxamide], for which the IC50 was ≤ 50 nM.

Regarding `Cc1ccc(-c2c(-c3ccc(C#N)cc3)nc(OC[C@@H]3CCNC3)c3nc(C(=O)NC4CC4)cn23)cc1` [Example 39, 6-(4-cyanophenyl)-N-cyclopropyl-5-(4-methylphenyl)-8-[(3R)-pyrrolidin-3-ylmethoxy]imidazol[1,2-a]pyrazine-2-carboxamide], the IC50 is ≤ 50 nM.

As to `Cc1ccc(-c2c(-c3ccc(C#N)cc3)nc(OC[C@@H]3CCNC3)c3nc(C(=O)NC4CN(C)C4)cn23)cc1` [Example 40, 6-(4-cyanophenyl)-N-(1-methylazetidin-3-yl)-5-(4-methylphenyl)-8-[(3R)-pyrrolidin-3-ylmethoxy]imidazol[1,2-a]pyrazine-2-carboxamide], the IC50 is ≤ 50 nM.

On to `Cc1ccc(-c2c(-c3ccc(C#N)cc3)nc(OC[C@@H]3CCNC3)c3nc(CO)cn23)cc1` [Example 41, 4-{2-(hydroxymethyl)-5-(4-methylphenyl)-8-[(3R)-pyrrolidin-3-ylmethoxy]imidazol[1,2-a]pyrazin-6-yl}benzonitrile], for which the IC50 was ≤ 50 nM.

For the compound `Cc1ccc(-c2c(-c3ccc(C#N)cc3)nc(OC[C@@H]3CCNC3)c3nc(CN(C)C)cn23)cc1` [Example 42, 4-{2-[(dimethylamino)methyl]-5-(4-methylphenyl)-8-[(3R)-pyrrolidin-3-ylmethoxy]imidazol[1,2-a]pyrazin-6-yl}benzonitrile], the IC50 was ≤ 50 nM.

For `Cc1ccc(-c2c(-c3ccc(C#N)cc3)nc(OC[C@@H]3CCNC3)c3nc(CN4CCC4)cn23)cc1` [Example 43, 4-{2-(azetidin-1-ylmethyl)-5-(4-methylphenyl)-8-[(3R)-pyrrolidin-3-ylmethoxy]imidazol[1,2-a]pyrazin-6-yl}benzonitrile], the IC50 was ≤ 50 nM.

For the compound `Cc1ccc(-c2c(-c3ccc(C#N)cc3)nc(OC[C@@H]3CCNC3)c3nc(CNCC4CC4)cn23)cc1` [Example 44, 4-{2-{[(cyclopropylmethyl)amino]methyl}-5-(4-methylphenyl)-8-[(3R)-pyrrolidin-3-ylmethoxy]imidazo[1,2-a]pyrazin-6-yl}benzonitrile], the IC50 was ≤ 50 nM.

Consider `Cc1ccc(-c2c(-c3ccc(C#N)cc3)nc(OC[C@@H]3CCNC3)c3nc(CNc4ccon4)cn23)cc1` [Example 45, 4-{2-[(isoxazol-3-ylamino)methyl]-5-(4-methylphenyl)-8-[(3R)-pyrrolidin-3-ylmethoxy]imidazo[1,2-a]pyrazin-6-yl}benzonitrile], for which the IC50 was ≤ 50 nM.

For the compound `Cc1ccc(-c2c(-c3ccc(C#N)cc3)nc(OC[C@@H]3CCN(C)C3)c3nc(CN(C)C)cn23)cc1` [Example 46, 4-(2-[(dimethylamino)methyl]-5-(4-methylphenyl)-8-{[(3R)-1-methylpyrrolidin-3-yl]methoxy}imidazo[1,2-a]pyrazin-6-yl)benzonitrile], the IC50 is ≤ 50 nM.

The record behind these values is US10112950B2, “Substituted imidazo[1,2-a]pyrazines as LSD1 inhibitors” (Incyte Corporation, priority 2014, dated 2018).
